Source: patent publication US20230293406A1, “Compositions Comprising (Bio)-Alkanediols and Cooling Agents” (Symrise AG, priority 2020, published 2023)
≈ marks a conversion by molar mass, not a printed value. Read-outs that look alike come from different tables or passages of the source. Values belong to the molecule of their own block, whether it stands above or below them.

Legend:
Corynebacterium xerosis = experiment: Minimum Inhibitory Concentration (MIC) growth inhibition test and Kull Synergy Index; format: cell-based; details: for MIC: Corynebacterium xerosis, read-out: MIC (ppm) Corynebacterium xerosis (converted)
Experimental: (§1) The MIC test is a test on growth inhibition. Estimation of the Minimum Inhibitory Concentration (MIC) is executed in 96 well plates. Through the comparison of bacterial growth with positive and negative controls via optical density (OD), different concentrations of given test substances are evaluated. Bacteria are cultivated under adjusted conditions based on information of the German Collection of Microorganisms and Cell Cultures (DSMZ) and stored in 50% Glycerol prior to use. Afterwards, the following method was applied:
(§2) Adding growth medium (according to microorganism) to each well of the microplate. Adding the test-substances in different concentrations, positive controls (water controls only with medium) and negative controls (benchmarks according to organism). Adding the microorganism in a concentration of 10^6 CFU/ml (CFU=colony forming units). Incubation of the microplates at appropriate conditions.
(§3) According to resulting growth, substance concentrations are labelled either as inhibiting or not and the corresponding MIC is defined as the lowest concentration where a complete growth inhibition is visible. Experiments at concentration limits (highest concentration labelled as growth and lowest concentration labelled as inhibiting) are performed at least twice.
(§4) The synergistic activity of 1,2-alkanediols with cooling compounds was determined by measuring the corresponding minimum inhibitory concentrations (MIC values) according to the method described above for antimicrobial activity: Minimum Inhibitory Concentration (MIC)
(§5) In order to calculate the synergy index with MIC values, the Kull equation (I) was used as follows:
(§6) SI=(MICmix×PA)/MICA+(MICmix×PB)/MICB (I)
(§7) wherein • SI is the Synergy Index according to Kull • MICA is the MIC value for Substance A • MICB is the MIC value for Substance B • MICmix is the MIC value for the mixture of substances A and B • PA is the proportion of the substance A in the mixture • PB is the proportion of the substance B in the mixture
(§8) To verify that the tested combinations act synergistically against microorganisms of the natural microbiota of mammalian skin, a corresponding experiment was conducted with representative microbial species. The synergistic activities of mixtures of 1,2-heptanediol and Menthyl lactate as well as for 1,2-nonanediol and Menthyl lactate were determined by measuring the corresponding minimum inhibitory concentrations (MIC values) as indicated in the methods section.

Staphylococcus hominis = experiment: as above; format: cell-based
Experimental: as §1, §2, §3, §4, §5, §6, §7, §8

[1] = Malodour coverage sensory test, trained panel, filter paper with sweat malodour; details: for malodour coverage ranking 6 h: after 6 h; for malodour coverage ranking 24 h: after 24 h; for malodour coverage ranking 48 h: after 48 h
Experimental: Malodour coverage was tested in an established setup with a trained panel (n=5-9). For this sensory test, a defined amount of the material was applied on a filter paper together with a defined amount of sweat malodour. For evaluation, the panelists were asked to rate the individual samples on a scale from 0 to 10 (0: odourless; 10: strongest imaginable). The results of the malodour rating for all materials were ranked and the position of the individual materials compared over time. A synergistic effect regarding reduction of malodour was found for all mixtures of Frescolat ML and 1,2-heptanediol after 24 h and 48 h, respectively.

Staphylococcus aureus = experiment: Minimum Inhibitory Concentration (MIC) growth inhibition test, 96 well plates, OD; format: cell-based; details: Table 1
Experimental: (§9) The MIC test is a test on growth inhibition. Estimation of the Minimum Inhibitory Concentration (MIC) is executed in 96 well plates. Through the comparison of bacterial growth with positive and negative controls via optical density (OD), different concentrations of given test substances are evaluated. Bacteria are cultivated under adjusted conditions based on information of the German Collection of Microorganisms and Cell Cultures (DSMZ) and stored in 50% Glycerol prior to use. Afterwards, the following method was applied: Adding growth medium (according to microorganism) to each well of the microplate. Adding the test-substances in different concentrations, positive controls (water controls only with medium) and negative controls (benchmarks according to organism). Adding the microorganism in a concentration of 10^6 CFU/ml (CFU=colony forming units). Incubation of the microplates at appropriate conditions. According to resulting growth, substance concentrations are labelled either as inhibiting or not and the corresponding MIC is defined as the lowest concentration where a complete growth inhibition is visible. Experiments at concentration limits (highest concentration labelled as growth and lowest concentration labelled as inhibiting) are performed at least twice.

Candida albicans = experiment: Minimum Inhibitory Concentration (MIC) growth inhibition test; format: cell-based; details: Table 1
Experimental: as §9

Corynebacterium jeikeium = experiment: as above; format: cell-based; details: Table 1
Experimental: as §9

Escherichia coli = experiment: as above; format: cell-based; details: Table 1
Experimental: as §9

Propionibacterium acnes = experiment: as above; format: cell-based; details: Cutibacterium acnes; Table 1; >5000: 5000 ppm tested, no growth inhibition
Experimental: as §9

[2] = Table 3, single substances and mixtures with menthyl lactate
[3] = Table 4, single substances and mixtures with further cooling agents
[4] = Table 3, single substances and mixtures with menthyl lactate, read-out: MIC (ppm) Staphylococcus hominis
[5] = Ranking: 1 = lowest malodour to 6 = strongest malodour, Table 6
[6] = Ranking: 1 = highest malodour to 6 = lowest malodour, single diols at 0.5%, Table 9
[7] = Ranking: 1 = highest malodour to 6 = lowest malodour, single diols at 0.5%, Table 8
[8] = Ranking: 1 = highest malodour to 6 = lowest malodour, single diols at 0.5%, Table 7
[9] = Ranking: 1 = lowest malodour to 6 = strongest malodour, Table 5

- MIC (Corynebacterium xerosis; [3]): 500 µg/mL
SMILES: CC1CCC(C(C)C)C(OCC(O)CO)C1 (stereo not drawn) [3-((−)-Menthoxy)propane-1,2-diol]

- MIC (Corynebacterium xerosis; [3]): 12500 µg/mL
SMILES: CCCCC(O)C(C)O (stereo not drawn) [2,3-C7, 2,3-Heptanediol]
- malodour coverage ranking 6 h [1, 8]: 3.2
- malodour coverage ranking 24 h [1, 8]: 3.5

- MIC (Corynebacterium xerosis; [3]): 1000 µg/mL
SMILES: CC1CCC(C(C)C)C(O)C1 (stereo not drawn) [Menthol]

- MIC (Corynebacterium xerosis; [2]): 250 µg/mL
- MIC (Staphylococcus hominis; [4]): 250 µg/mL
SMILES: CC1CCC(C(C)C)C(OC(=O)C(C)O)C1 (single isomer, unassigned; (-)) [Menthyl lactate, (−)-Menthyl lactate]
- malodour coverage ranking 6 h [1, 5]: 3.6
- malodour coverage ranking 24 h [1, 9]: 3.6
- malodour coverage ranking 24 h [1, 5]: 3.9
- malodour coverage ranking 48 h [1, 9]: 3.1

- MIC (Corynebacterium xerosis; [2]): 5000 µg/mL
- MIC (ppm) Corynebacterium xerosis (Corynebacterium xerosis; [3]): 5 000 ppm
- MIC (Staphylococcus hominis; [4]): 10000 µg/mL
SMILES: CCCCCC(O)CO (stereo not drawn) [1,2-C7, 1,2-heptanediol]
- malodour coverage ranking 6 h [1, 8]: 2.3
- malodour coverage ranking 6 h [1, 6]: 3.5
- malodour coverage ranking 24 h [1, 8]: 3.4
- malodour coverage ranking 24 h [1, 6]: 3.1
- malodour coverage ranking 24 h [1, 9]: 3.3
- malodour coverage ranking 48 h [1, 9]: 3.3

Second part, the molecule before the results:

SMILES: CCCCCCCC(O)CO (stereo not drawn) [1,2-C9, 1,2-nonanediol]
- MIC (ppm) Corynebacterium xerosis (Corynebacterium xerosis; [2]): 2 500 ppm
- MIC (ppm) Corynebacterium xerosis (Corynebacterium xerosis; [3]): 2 500 ppm
- MIC (Staphylococcus hominis; [4]): 1000 µg/mL
- malodour coverage ranking 6 h [1, 5]: 4.2
- malodour coverage ranking 24 h [1, 5]: 3.9

SMILES: CCCCCC(O)C(C)O (stereo not drawn) [2,3-C8, 2,3-Octanediol]
- malodour coverage ranking 6 h [1, 6]: 2.3
- malodour coverage ranking 24 h [1, 7]: 3.2
- malodour coverage ranking 24 h [1, 6]: 3.4

SMILES: CCCCCCC(O)C(C)O (stereo not drawn) [2,3-C9, 2,3-nonanediol]
- MIC (Corynebacterium xerosis; [3]): 2500 µg/mL

SMILES: CCCCCCC(O)CO (stereo not drawn) [1,2-C8, 1,2-Octanediol]
- malodour coverage ranking 24 h [1, 7]: 2.8

SMILES: CCCCCCCCCC(O)CO (stereo not drawn) [1,2-C11, 1,2-undecandiol]
- MIC (Staphylococcus aureus): 125 µg/mL (≈ 664 µM)
- MIC (Candida albicans): 64 µg/mL (≈ 340 µM)
- MIC (Corynebacterium jeikeium): 250 µg/mL (≈ 1330 µM)
- MIC (Escherichia coli): 250 µg/mL (≈ 1330 µM)
- MIC (Propionibacterium acnes): 250 µg/mL (≈ 1330 µM)
- MIC (Staphylococcus hominis; Table 1, read-out: Minimum Inhibitory Concentration (MIC) Staphylococcus hominis): 125 µg/mL
